Data as given in the supplement of paper PMC10307832.

Assays:
Assay in all cases: relative viability (nuclei count vs DMSO), 5 days (fraction); higher = more cells survive
IMD-0354 + Trametinib = compound: O=C(Nc1cc(C(F)(F)F)cc(C(F)(F)F)c1)c1cc(Cl)ccc1O [IMD-0354] + CC(=O)Nc1cccc(-n2c(=O)n(C3CC3)c(=O)c3c(Nc4ccc(I)cc4F)n(C)c(=O)c(C)c32)c1 [Trametinib] (partner 0.02 µM)
In short: (§1)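 Lung cancer cell lines, seeded in 1536-well plates, were treated the following day by pin tool with a single drug or with five library-drug doses (not always all listed) in √10 steps on top of a fixed anchor-drug dose. Cells were fixed and nuclei stained in one step after 5 days, and nuclei were counted. Relative viability is the nuclei count for treated wells divided by that for vehicle wells, reported as medians of duplicate plates.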

CX-5461 + Foretinib = compound: Cc1cnc(CNC(=O)c2c(=O)c3ccc(N4CCCN(C)CC4)nc3n3c2sc2ccccc23)cn1 [CX-5461] + COc1cc2c(Oc3ccc(NC(=O)C4(C(=O)Nc5ccc(F)cc5)CC4)cc3F)ccnc2cc1OCCCN1CCOCC1 [Foretinib] (partner 0.25 µM)
In short: as §1

CX-5461 + Vorinostat = compound: Cc1cnc(CNC(=O)c2c(=O)c3ccc(N4CCCN(C)CC4)nc3n3c2sc2ccccc23)cn1 [CX-5461] + O=C(CCCCCCC(=O)Nc1ccccc1)NO [Vorinostat] (partner 1 µM)
In short: as §1

IMD-0354 + Navitoclax = compound: O=C(Nc1cc(C(F)(F)F)cc(C(F)(F)F)c1)c1cc(Cl)ccc1O [IMD-0354] + CC1(C)CCC(c2ccc(Cl)cc2)=C(CN2CCN(c3ccc(C(=O)NS(=O)(=O)c4ccc(N[C@H](CCN5CCOCC5)CSc5ccccc5)c(S(=O)(=O)C(F)(F)F)c4)cc3)CC2)C1 [Navitoclax] (partner 0.5 µM)
In short: as §1

Row | Cell Line | relative viability (IMD-0354 + Trametinib; first compound 0.04 µM) | relative viability (IMD-0354 + Trametinib; first compound 0.1265 µM) | relative viability (IMD-0354 + Trametinib; first compound 0.4 µM) | relative viability (IMD-0354 + Trametinib; first compound 1.265 µM) | relative viability (IMD-0354 + Trametinib; first compound 4 µM) | relative viability (CX-5461 + Foretinib; first compound 0.01 µM) | relative viability (CX-5461 + Foretinib; first compound 0.03162 µM) | relative viability (CX-5461 + Foretinib; first compound 0.1 µM) | relative viability (CX-5461 + Foretinib; first compound 0.3162 µM) | relative viability (CX-5461 + Foretinib; first compound 1 µM) | relative viability (CX-5461 + Vorinostat; first compound 0.01 µM) | relative viability (CX-5461 + Vorinostat; first compound 0.03162 µM) | relative viability (CX-5461 + Vorinostat; first compound 0.1 µM) | relative viability (CX-5461 + Vorinostat; first compound 0.3162 µM) | relative viability (CX-5461 + Vorinostat; first compound 1 µM) | relative viability (IMD-0354 + Navitoclax; first compound 0.04 µM) | relative viability (IMD-0354 + Navitoclax; first compound 0.1265 µM) | relative viability (IMD-0354 + Navitoclax; first compound 0.4 µM) | relative viability (IMD-0354 + Navitoclax; first compound 1.265 µM) | relative viability (IMD-0354 + Navitoclax; first compound 4 µM)
1 | NCI-H2087 | 0.18 | 0.183 | 0.125 | 0.097 | 0.116 | 1.17 | 1.43 | 1.01 | 1.14 | 0.787 | 0.625 | 0.709 | 0.754 | 0.696 | 0.527 | 0.918 | 0.815 | 0.363 | 0.111 | 0.158
2 | NCI-H2126 | 0.591 | 0.558 | 0.491 | 0.644 | 0.31 | 1.28 | 1.3 | 1.16 | 1.39 | 0.838 | 0.725 | 0.861 | 0.79 | 0.522 | 0.881 | 0.905 | 0.817 | 0.673 | 0.79 | 0.269
3 | NCI-H2170 | 1.03 | 0.909 | 0.562 | 0.897 | 0.481 | 0.964 | 1.01 | 0.944 | 1.07 | 1 | 0.887 | 0.772 | 0.846 | 0.743 | 0.703 | 0.608 | 0.585 | 0.562 | 0.644 | 0.274
4 | NCI-H2228 | 0.472 | 0.454 | 0.43 | 0.171 | 0.232 | 0.691 | 1.03 | 0.763 | 0.747 | 0.13 | 0.516 | 0.66 | 0.54 | 0.793 | 0.114 | 0.738 | 1.12 | 0.589 | 1.27 | 0.355
5 | NCI-H2347 | 0.279 | 0.296 | 0.227 | 0.27 | 0.207 | 0.994 | 1.11 | 0.947 | 0.842 | 0.849 | 0.457 | 0.608 | 0.512 | 0.552 | 0.501 | 0.818 | 0.838 | 0.55 | 0.35 | 0.255
6 | NCI-H2405 | 0.753 | 0.625 | 0.518 | 0.283 | 0.277 | 1.03 | 1.08 | 1.04 | 0.952 | 1.03 | 1.04 | 0.872 | 0.994 | 0.939 | 0.669 | 1.08 | 0.952 | 0.612 | 0.174 | 0.113
7 | NCI-H3122 | 0.215 | 0.223 | 0.178 | 0.252 | 0.147 | 0.915 | 0.906 | 0.941 | 0.929 | 0.974 | 1.02 | 1.02 | 1.12 | 1.07 | 0.967 | 1.01 | 1.09 | 0.829 | 0.987 | 0.155
8 | PC-3 [JPC-3] | 0.825 | 0.676 | 0.65 | 0.399 | 0.267 | 1.07 | 1.06 | 0.984 | 0.986 | 1.01 | 0.765 |  | 0.783 | 0.869 | 0.72 | 0.712 | 0.823 | 0.638 | 0.527 | 0.264
9 | PC-14 | 0.945 | 0.826 | 0.301 | 0.359 | 0.109 | 1 | 1.04 | 1.04 | 0.962 | 0.887 | 0.65 | 0.797 | 0.533 | 0.527 | 0.106 | 1.04 | 0.937 | 0.425 | 0.192 | 0.103
10 | RERF-LC-KJ | 1.02 | 0.931 | 0.663 | 0.557 | 0.174 | 0.893 | 0.964 | 0.998 | 0.765 | 0.815 | 0.724 | 0.756 | 0.532 | 0.589 | 0.54 | 0.843 | 1.1 | 0.496 | 0.109 | 0.228
11 | SK-LU-1 | 0.447 | 0.514 | 0.41 | 0.239 | 0.269 | 0.818 | 0.857 | 0.736 |  | 0.326 | 0.826 | 0.721 | 0.777 | 0.777 | 0.538 | 1.26 | 1.17 | 0.223 | 0.386 | 0.126
12 | SK-MES-1 | 0.658 | 0.612 | 0.49 | 0.401 | 0.203 | 1.05 | 1.05 | 1.04 | 1.08 | 0.838 | 1.22 | 1.22 | 1.13 | 1.19 | 0.654 | 1.48 | 1.12 | 0.649 | 0.441 | 0.314
13 | SW 1573 | 0.631 | 0.554 | 0.384 | 0.107 | 0.105 | 0.887 | 0.83 | 0.98 | 0.397 | 0.531 | 0.726 | 0.668 | 0.116 | 0.15 | 0.214 | 1.15 | 0.948 | 0.421 | 0.571 | 0.102
